Where two headings read alike, the source gives them in different places.
System: 2-phenyl-1,4-benzoquinone-induced writhing
Assay: 2-phenyl-1,4-benzoquinone-induced writhing test in mice (analgesia)
Type: in vivo
Conditions: Mus musculus, read-out: Inhibition of Writhing ED50
Source text: Compounds of the present invention are useful as analgesic agents due to their ability to alleviate pain in mammals. […] Exptl. Biol. Med. 95, 729 (1957)]. The analgesic activity of some of the compounds expressed in terms of the ED50 values for inhibition of writhing are given in TABLE I.

SMILES | ED50 (sc, subcutaneous) [mg/kg] | ED50 (oral) [mg/kg]
CN1CC[C@@]2(C)c3cc(OC(=O)Oc4ccc(Cl)cc4)ccc3N(C)[C@@H]12.O=C(O)/C=C/C(=O)O (relative stereo) [4-Chlorophenyl (3aS-cis)-1,2,3,3a,8,8a-hexahydro-1,3a,8-trimethylpyrrolo [2,3-b]indol-5-yl carbonate fumarate] | 0.74 | 
CN1CC[C@@]2(C)c3cc(OC(=O)OC(C)(C)C)cc(Br)c3N(C)[C@@H]12 [(3aS-cis)-7-Bromo-1,2,3,3a,8,8a-hexahydro-1,3a,8-trimethylpyrrolo[2,3-b]indol-5-yl t-butyl carbonate sesquifumarate] | 0.16 | 0.4
CN1CC[C@@]2(C)c3cc(O)ccc3N(C)[C@@H]12 [eseroline salicylate, reference compound] | 0.52 | 

Reference: patent publication US4971992A, “Carbonate derivatives of eseroline” (priority 1989, dated 1990)
